Assay results: patent US20250228865A1, “COMPOUNDS FOR ENHANCING READ THROUGH OF GENES CONTAINING PREMATURE TERMINATION CODONS AND METHODS FOR MAKING AND USING THE SAME” (Sanofi US Services Inc., priority 2022, published 2025)

Key:
[1] = test system: recombinant human CFTR carrying the premature stop codon (PTC) mutation R1162X; experiment: CFTR-PTC mutant translation readthrough, Nanoluc tagged CFTR luminescence (R1162X cell line); type: cell-based; conditions: for CFTR R1162X ACTIVITY Fold 10 μM G-418: fold over 10 μM G-418, in combination with G418; for EC50: in combination with G418, 16HBE cells, read-out: CFTR R1162X ACTIVITY EC50
How it was run: (§1)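 Readthrough is the 48 h compound-induced luminescence increase scaled to that of maximal G418 (125-250 μM). Compounds run from 50 μM final in 2-fold steps, ±10 μM G418, on 16HBE lines carrying Nanoluc-tagged CFTR G542X (extracellular loop 4 tag) or R1162X (C-terminal tag), with 3 μM VX-809 present.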

[2] = test system: recombinant human CFTR carrying the premature stop codon (PTC) mutation G542X; experiment: CFTR-PTC mutant translation readthrough, Nanoluc tagged CFTR luminescence (G542X cell line); type: cell-based; conditions: in combination with G418, G542X cell line; for CFTR G542X ACTIVITY Fold 10 μM G-418: fold over 10 μM G-418; for EC50: 16HBE cells
How it was run: as §1

Row | Compound | CFTR R1162X ACTIVITY Fold 10 μM G-418 [1] | EC50 [1] | CFTR G542X ACTIVITY Fold 10 μM G-418 [2] | EC50 [2]
1 | Cc1cccc(C(F)(F)F)c1COc1cnc(N2CC(=O)N(CO)C2=O)nc1 | A′ (A′ = ≥10X) | 1 to 10 µM | A′ (A′ = ≥10X) | 1 to 10 µM
2 | OCC1CN(c2ncc(OCc3c(Cl)cccc3C(F)(F)F)cn2)CCO1 (stereo not drawn) | A′ (A′ = ≥10X) | < 1 µM | A′ (A′ = ≥10X) | < 1 µM
3 | O=C1OC(CO)CN1c1ccc(OCc2c(Cl)cccc2OC(F)F)cc1 (stereo not drawn) | B′ (B′ = ≥5X to <10X) | > 10 µM | C′ (C′ = <5X) | 1 to 10 µM
4 | O=C1OC(CO)CN1c1ccc(OCc2cc(Cl)cc(Cl)c2)cn1 (stereo not drawn) [3-[5-[(3,5-dichlorophenyl)methoxy]-2-pyridyl]-5-(hydroxymethyl)oxazolidin-2-one] | A′ (A′ = ≥10X) | 1 to 10 µM | A′ (A′ = ≥10X) | 1 to 10 µM
5 | OCc1cc(-c2ccc(OCc3c(Cl)cccc3Cl)cc2)no1 [[3-[4-[(2,6-dichlorophenyl)methoxy]phenyl]isoxazol-5-yl]methanol] | A′ (A′ = ≥10X) | 1 to 10 µM | A′ (A′ = ≥10X) | 1 to 10 µM
6 | O=C1CN(c2ncc(OCc3c(Cl)cccc3Cl)cn2)CCN1CCO | A′ (A′ = ≥10X) | 1 to 10 µM | A′ (A′ = ≥10X) | 1 to 10 µM
7 | Clc1cccc(Cl)c1COc1cnc(-n2ncc(-c3ccccn3)n2)nc1 [5-[(2,6-dichlorophenyl)methoxy]-2-[4-(2-pyridyl)triazol-2-yl]pyrimidine] | A′ (A′ = ≥10X) | 1 to 10 µM | A′ (A′ = ≥10X) | 1 to 10 µM
8 | NC(=O)N1CCC(c2ncc(OCc3c(Cl)cccc3C(F)(F)F)cn2)CC1 | A′ (A′ = ≥10X) | < 1 µM | A′ (A′ = ≥10X) | < 1 µM
9 | Cc1cccc(C(F)(F)F)c1COc1cnc(N2CC3CC(C2)C3O)nc1 (stereo not drawn) | A′ (A′ = ≥10X) | 1 to 10 µM | A′ (A′ = ≥10X) | 1 to 10 µM
10 | O=C1CN(c2ncc(OCc3c(Cl)cccc3Cl)cn2)CC(CO)N1 (stereo not drawn) | A′ (A′ = ≥10X) | 1 to 10 µM | A′ (A′ = ≥10X) | 1 to 10 µM
11 | O=C1CN(c2ncc(OCc3c(Cl)cccc3C(F)(F)F)cn2)CC(CO)N1 (stereo not drawn) | A′ (A′ = ≥10X) | 1 to 10 µM | A′ (A′ = ≥10X) | 1 to 10 µM
12 | Cc1cccc(C(F)(F)F)c1COc1cnc(N2CCC(C(N)=O)C2)nc1 (stereo not drawn) | A′ (A′ = ≥10X) | 1 to 10 µM | A′ (A′ = ≥10X) | < 1 µM
13 | Cc1cccc(C(F)(F)F)c1COc1cnc(N(C)CCCCO)nc1 | A′ (A′ = ≥10X) | < 1 µM | A′ (A′ = ≥10X) | < 1 µM
14 | O=C1CN(c2ncc(OCc3c(Cl)cccc3C(F)(F)F)cn2)C(=O)N1 | A′ (A′ = ≥10X) | 1 to 10 µM | A′ (A′ = ≥10X) | 1 to 10 µM
15 | O=C1OCC(CO)=C1c1ccc(OCc2c(Cl)cccc2Cl)cc1 [4-[4-[(2,6-dichlorophenyl)methoxy]phenyl]-3-(hydroxymethyl)-2H-furan-5-one] | B′ (B′ = ≥5X to <10X) | 1 to 10 µM | B′ (B′ = ≥5X to <10X) | 1 to 10 µM
16 | Clc1cccc(Cl)c1COc1cnc(N2CCOCC2)nc1 [4-[5-[(2,6-dichlorophenyl)methoxy]pyrimidin-2-yl]morpholine] | A′ (A′ = ≥10X) | 1 to 10 µM | A′ (A′ = ≥10X) | 1 to 10 µM
17 | Cc1cccc(C(F)(F)F)c1COc1ccc(-n2cnc(CO)n2)cc1 | A′ (A′ = ≥10X) | < 1 µM | A′ (A′ = ≥10X) | < 1 µM
18 | O=CN[C@@H](CO)C(=O)Nc1ccc(OCc2c(Cl)cccc2Cl)cn1 | B′ (B′ = ≥5X to <10X) | > 10 µM |  | > 10 µM
19 | CC1(O)CCN(c2ncc(OCc3c(Cl)cccc3C(F)(F)F)cn2)CC1 | A′ (A′ = ≥10X) | < 1 µM | A′ (A′ = ≥10X) | < 1 µM
20 | COC1CCN(c2ncc(OCc3c(Cl)cccc3Cl)cn2)C1 (stereo not drawn) [5-[(2,6-dichlorophenyl)methoxy]-2-(3-methoxypyrrolidin-1-yl)pyrimidine] | B′ (B′ = ≥5X to <10X) | 1 to 10 µM | A′ (A′ = ≥10X) | 1 to 10 µM

Row | Compound | CFTR R1162X ACTIVITY Fold 10 μM G-418 [1] | EC50 [1] | CFTR G542X ACTIVITY Fold 10 μM G-418 [2] | EC50 [2]
21 | Cc1cccc(C(F)(F)F)c1COc1ccc(N2C(=O)NC(C)(C)C2=O)nc1 | B′ (B′ = ≥5X to <10X) | 1 to 10 µM | A′ (A′ = ≥10X) | 1 to 10 µM
22 | OCc1nnc(-c2ccc(OCc3c(Cl)cccc3C(F)(F)F)cc2)o1 | A′ (A′ = ≥10X) | < 1 µM | A′ (A′ = ≥10X) | < 1 µM
23 | OCc1ncn(-c2ccc(OCc3c(Cl)cccc3C(F)(F)F)cn2)n1 | A′ (A′ = ≥10X) | < 1 µM | A′ (A′ = ≥10X) | < 1 µM
24 | OCC1CN(c2ncc(OCc3c(F)cccc3C(F)(F)F)cn2)CCO1 (stereo not drawn) | A′ (A′ = ≥10X) | 1 to 10 µM | A′ (A′ = ≥10X) | 1 to 10 µM
25 | O=C1COC(=O)N1c1ccc(OCc2c(Cl)cccc2Cl)cc1 [3-[4-[(2,6-dichlorophenyl)methoxy]phenyl]oxazolidine-2,4-dione] | C′ (C′ = <5X) | 1 to 10 µM | B′ (B′ = ≥5X to <10X) | 1 to 10 µM
26 | OCc1ncn(-c2ncc(OCc3c(Cl)cccc3C(F)(F)F)cn2)n1 | A′ (A′ = ≥10X) | 1 to 10 µM | A′ (A′ = ≥10X) | < 1 µM
27 | Cc1cccc(C(F)(F)F)c1COc1ccc(-n2cnc(CN)c2)nc1 | A′ (A′ = ≥10X) | 1 to 10 µM | A′ (A′ = ≥10X) | < 1 µM
28 | OC[C@H]1CN(c2ncc(OCc3c(Cl)cccc3C(F)(F)F)cn2)CCO1 | A′ (A′ = ≥10X) | < 1 µM | A′ (A′ = ≥10X) | < 1 µM
29 | Cc1cccc(C(F)(F)F)c1COc1ccc(N2C(=O)NC3(CCCC3)C2=O)cc1 | B′ (B′ = ≥5X to <10X) | 1 to 10 µM | A′ (A′ = ≥10X) | < 1 µM
30 | FC(F)(F)c1cccc(Cl)c1COc1cnc(N2CCC3(CCCNC3)C2)nc1 (stereo not drawn) | A′ (A′ = ≥10X) | 1 to 10 µM | A′ (A′ = ≥10X) | > 10 µM
31 | OC1(c2ccccc2)CCN(c2ncc(OCc3c(Cl)cccc3Cl)cn2)CC1 [1-[5-[(2,6-dichlorophenyl)methoxy]pyrimidin-2-yl]-4-phenyl-piperidin-4-ol] | A′ (A′ = ≥10X) | 1 to 10 µM | A′ (A′ = ≥10X) | < 1 µM
32 | CC(=O)N1CCN(c2ncc(OCc3c(Cl)cccc3Cl)cn2)CC1 [1-[4-[5-[(2,6-dichlorophenyl)methoxy]pyrimidin-2-yl]piperazin-1-yl]ethanone] | A′ (A′ = ≥10X) | 1 to 10 µM | A′ (A′ = ≥10X) | 1 to 10 µM
33 | Cc1cccc(C(F)(F)F)c1COc1cnc(N2CCOC(CO)C2)nc1 (stereo not drawn) | A′ (A′ = ≥10X) | < 1 µM | A′ (A′ = ≥10X) | < 1 µM
34 | O=C1OC(CO)CN1c1ccc(OCc2c(Cl)cccc2Cl)c(F)c1 (stereo not drawn) | C′ (C′ = <5X) | 1 to 10 µM | B′ (B′ = ≥5X to <10X) | 1 to 10 µM
35 | Cc1cccc(C(C)(F)F)c1COc1ccc(-n2cc(CO)nn2)cc1 | B′ (B′ = ≥5X to <10X) | 1 to 10 µM | B′ (B′ = ≥5X to <10X) | 1 to 10 µM
36 | OCc1cn(-c2ccc(OCc3c(Cl)cccc3Cl)cc2)cn1 [[1-[4-[(2,6-dichlorophenyl)methoxy]phenyl]imidazol-4-yl]methanol] | A′ (A′ = ≥10X) | 1 to 10 µM | A′ (A′ = ≥10X) | < 1 µM
37 | CC(=O)N[C@H]1CCN(c2ncc(OCc3c(Cl)cccc3Cl)cn2)C1 | A′ (A′ = ≥10X) | 1 to 10 µM | A′ (A′ = ≥10X) | 1 to 10 µM
38 | NC(=O)N1CC2(C1)CN(c1ncc(OCc3c(Cl)cccc3C(F)(F)F)cn1)C2 | B′ (B′ = ≥5X to <10X) | 1 to 10 µM | A′ (A′ = ≥10X) | 1 to 10 µM
39 | CC1(C)NC(=O)N(c2ccc(OCc3c(Cl)cccc3C(F)(F)F)cn2)C1=O | B′ (B′ = ≥5X to <10X) | 1 to 10 µM | A′ (A′ = ≥10X) | 1 to 10 µM
40 | Cc1cccc(C(F)(F)F)c1COc1cnc(N2CCN3CCOCC3C2)nc1 (stereo not drawn) | A′ (A′ = ≥10X) | < 1 µM | A′ (A′ = ≥10X) | < 1 µM
